The structures appear in SMILES notation. “And” between values parts separate entries of the source, which are not always exact repeats. Equal values may be shown once.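 Tested at 5 concentrations; 48 h exposure; 96-well plates; endpoints linearly interpolated, else capped at highest concentration. Here, GI50 denotes the concentration required for 50% inhibition of growth. TGI marks complete inhibition of growth.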 Bounds are passed on as bounds.

Some test systems named below: 786-0 renal; CAKI-1 renal; COLO 205 colon; IGROV1 ovarian; MDA-MB-435; RPMI-8226 leukemia; SK-MEL-2 melanoma; SR leukemia; T-47D breast; UO-31 renal.
Common to all, as to assay: NCI tumour cell line growth inhibition, 48 h

For `CCCCCCC1CCCCN1C(c1ccccc1)C(O)c1ccccc1` (centres undefined), the GI50 is 3.97 µM in the assay with 786-0 renal; 3.72 µM in the assay on CAKI-1 renal; 3.09 µM with COLO 205 colon; 8.62 µM in the assay with IGROV1 ovarian; 4.71 µM in the assay on MDA-MB-435; 2.61 µM with RPMI-8226 leukemia. Besides, the GI50 with SK-MEL-2 melanoma is 5.33 µM; with SR leukemia, 2.94 µM; in the assay on T-47D breast it was 4.68 µM; with UO-31 renal, 5.69 µM. In addition, the TGI in the assay on 786-0 renal turned out to be 13.6 µM; in the assay on CAKI-1 renal, 14.6 µM; in the assay with COLO 205 colon it was 11.4 µM; in the assay on IGROV1 ovarian it was 22 µM; with MDA-MB-435, 19.2 µM; in the assay with RPMI-8226 leukemia, 6.08 µM. The TGI was found to be 20.5 µM in the assay on SK-MEL-2 melanoma, 8.54 µM in the assay with SR leukemia, 19.1 µM with T-47D breast and 19.8 µM in the assay on UO-31 renal.

Consider `OCCN1CCCN(CCCN2c3ccccc3Sc3ccc(C(F)(F)F)cc32)CC1`, for which the GI50 with 786-0 renal was 2.21 µM; in the assay on CAKI-1 renal, 2.3 µM; with COLO 205 colon it was 1.94 µM; with IGROV1 ovarian, 2.68 µM; with MDA-MB-435, 1.67 µM; in the assay with RPMI-8226 leukemia, 2.21 µM. In addition, the GI50 was 2.07 µM in the assay with SK-MEL-2 melanoma, 2.18 µM with SR leukemia, 2.21 µM with T-47D breast and 2.3 µM with UO-31 renal. Further, the TGI came to 5.25 µM in the assay with 786-0 renal; 6.26 µM in the assay on CAKI-1 renal; 3.68 µM in the assay on COLO 205 colon; 7.22 µM in the assay with IGROV1 ovarian; 3.33 µM in the assay with MDA-MB-435; 4.46 µM with RPMI-8226 leukemia. For the same compound, the TGI in the assay on SK-MEL-2 melanoma stood at 4.08 µM; with SR leukemia, 4.75 µM; in the assay on T-47D breast it was 5.39 µM; in the assay with UO-31 renal, 10.6 µM.

In the case of `COC(=O)c1sc(=S)c2sc(C(=O)OC)c(C(=O)OC)c2c1C(=O)OC`, the GI50 in the assay with 786-0 renal is 89.4 µM; with CAKI-1 renal it was 58.1 µM; in the assay on COLO 205 colon, 69.8 µM; in the assay with IGROV1 ovarian, 37.1 µM; in the assay with MDA-MB-435, 51.3 µM; with RPMI-8226 leukemia, 22 µM. Further, the GI50 was 38.7 µM in the assay with SK-MEL-2 melanoma, 23.3 µM with SR leukemia, 77.7 µM in the assay on T-47D breast and 68.5 µM in the assay with UO-31 renal. For the same compound, the TGI with 786-0 renal is > 100 µM; in the assay with CAKI-1 renal, > 100 µM; in the assay on COLO 205 colon, > 100 µM; with IGROV1 ovarian, > 100 µM; with MDA-MB-435, > 100 µM; with RPMI-8226 leukemia, 48.8 µM. The TGI was > 100 µM in the assay with SK-MEL-2 melanoma, 48.2 µM in the assay with SR leukemia, > 100 µM with T-47D breast and > 100 µM in the assay on UO-31 renal.

For the compound `Cn1cc(C2=C(c3cccc([N+](=O)[O-])c3)C(=O)NC2=O)c2ccccc21`, the GI50 with 786-0 renal was 6.45 µM; with CAKI-1 renal, 5.5 µM; in the assay with COLO 205 colon, 8.32 µM; in the assay on IGROV1 ovarian it was 9.98 µM; in the assay on MDA-MB-435 it was 7.46 µM; in the assay on RPMI-8226 leukemia, 7.47 µM. For the same compound, the GI50 is 5.24 µM in the assay on SK-MEL-2 melanoma, 7 µM in the assay with SR leukemia, 6.32 µM in the assay on T-47D breast and 6.46 µM in the assay with UO-31 renal. Also, the TGI is > 25 µM in the assay with 786-0 renal; > 25 µM with CAKI-1 renal; > 25 µM in the assay on COLO 205 colon; 24.2 µM in the assay on IGROV1 ovarian; > 25 µM in the assay with MDA-MB-435; > 23.2 µM with RPMI-8226 leukemia. Moreover, the TGI was 17.2 µM with SK-MEL-2 melanoma, > 25 µM in the assay on SR leukemia, 19.4 µM in the assay with T-47D breast and > 25 µM in the assay with UO-31 renal.

On to `NCC[PH+](c1ccccc1)c1ccccc1.NCC[PH+](c1ccccc1)c1ccccc1.[Cl-].[Pt+4]`, for which the GI50 with 786-0 renal is > 100 µM; in the assay with CAKI-1 renal, > 100 µM; in the assay with COLO 205 colon, > 100 µM; with IGROV1 ovarian, 29.3 µM; with MDA-MB-435, > 100 µM; in the assay on RPMI-8226 leukemia, 14.7 µM. The GI50 in the assay on SK-MEL-2 melanoma was > 100 µM; in the assay on SR leukemia, 29.7 µM; in the assay on T-47D breast, > 100 µM; with UO-31 renal it was > 100 µM. The TGI with 786-0 renal was > 100 µM; in the assay on CAKI-1 renal, > 100 µM; in the assay with COLO 205 colon it was > 100 µM; in the assay on IGROV1 ovarian it was > 100 µM; in the assay on MDA-MB-435 it was > 100 µM; with RPMI-8226 leukemia, > 65.2 µM. In addition, the TGI with SK-MEL-2 melanoma, in the assay with SR leukemia, in the assay on T-47D breast and with UO-31 renal was > 100 µM in each case.

As to `O=c1ccc(=O)c2c1c1[nH]c3ccccc3c1c1c(=O)c3ccccc3c(=O)c21`, the TGI with 786-0 renal, in the assay with CAKI-1 renal, in the assay on COLO 205 colon, in the assay with IGROV1 ovarian, in the assay with MDA-MB-435 and with RPMI-8226 leukemia was > 10 µM throughout. The TGI in the assay with SK-MEL-2 melanoma, with SR leukemia, in the assay on T-47D breast and with UO-31 renal was > 10 µM each time.

In the case of `CN(C)CC(=O)N1CCc2c([nH]c3ccccc23)C1c1cccnc1` (centres undefined), the TGI with 786-0 renal, in the assay on CAKI-1 renal, in the assay with COLO 205 colon, in the assay on IGROV1 ovarian, with MDA-MB-435 and with RPMI-8226 leukemia was > 100 µM in each case. Besides, the TGI with SK-MEL-2 melanoma, with SR leukemia, in the assay with T-47D breast and with UO-31 renal was > 100 µM each time. Moreover, the GI50 was 99.7 µM in the assay with COLO 205 colon, > 100 µM in the assay on MDA-MB-435, > 100 µM in the assay with SK-MEL-2 melanoma and > 100 µM in the assay with T-47D breast.

Take `COc1ccc(-c2nn(-c3cccc(Cl)c3)cc2-c2c(C#N)c(=O)n3[nH]c(-c4ccc(C)o4)nc3c2C#N)cc1`: the GI50 is 9.42 µM with 786-0 renal; 6.8 µM in the assay with CAKI-1 renal; 5.47 µM in the assay on COLO 205 colon; 2.6 µM in the assay on IGROV1 ovarian; 4.44 µM in the assay with MDA-MB-435; 5.68 µM in the assay with RPMI-8226 leukemia. Moreover, the GI50 in the assay with SK-MEL-2 melanoma was 6.57 µM; in the assay on SR leukemia, 4.22 µM; with T-47D breast, 2.77 µM; in the assay on UO-31 renal, 1.8 µM. Moreover, the TGI in the assay on 786-0 renal was > 50 µM; in the assay with CAKI-1 renal, > 50 µM; in the assay on COLO 205 colon it was 11.6 µM; in the assay on IGROV1 ovarian it was 18.5 µM; in the assay with MDA-MB-435 it was 30.1 µM; in the assay on RPMI-8226 leukemia, > 50 µM. Moreover, the TGI in the assay on SK-MEL-2 melanoma was found to be 18.1 µM; in the assay with SR leukemia it was 22.1 µM; in the assay with T-47D breast, 33.8 µM; in the assay with UO-31 renal, 38.9 µM.

On to `Cc1cc(=O)[nH]c2c1C(=O)c1c(C)cc(=O)n(C)c1C2=O`, for which the TGI is 0.182 µM in the assay on 786-0 renal; 0.258 µM with CAKI-1 renal; 0.037 µM with COLO 205 colon; 0.437 µM in the assay on IGROV1 ovarian; 0.0275 µM in the assay with MDA-MB-435; > 9.41 µM in the assay on RPMI-8226 leukemia. Also, the TGI was 0.0592 µM in the assay on SK-MEL-2 melanoma, > 10 µM in the assay with SR leukemia, 0.848 µM in the assay on T-47D breast and 0.318 µM with UO-31 renal.

On to `COc1cc(C(=O)Nc2ccc(-c3nc4ccccc4[nH]3)cc2)cc(OC)c1OC`, for which the GI50 was 11.8 µM with 786-0 renal; 10.9 µM in the assay with CAKI-1 renal; 15.3 µM with COLO 205 colon; 14.1 µM in the assay on IGROV1 ovarian; 13.5 µM in the assay with MDA-MB-435; 6.35 µM with RPMI-8226 leukemia. Moreover, the GI50 in the assay with SK-MEL-2 melanoma was 14.5 µM; in the assay on SR leukemia, 6.92 µM; with T-47D breast, 5.39 µM; in the assay on UO-31 renal, 3.92 µM. Moreover, the TGI amounted to 28.6 µM in the assay with 786-0 renal; 25.3 µM with CAKI-1 renal; 39.1 µM with COLO 205 colon; 31.5 µM in the assay with IGROV1 ovarian; 31 µM in the assay with MDA-MB-435; 30.6 µM in the assay with RPMI-8226 leukemia. Moreover, the TGI was 29.5 µM in the assay with SK-MEL-2 melanoma, 40.9 µM in the assay on SR leukemia, 23.4 µM in the assay with T-47D breast and 16.1 µM with UO-31 renal.

For the compound `CC(C)(C)c1cnc(CSc2cnc(NC(=O)C3CCNCC3)s2)o1`, the GI50 in the assay on 786-0 renal was 0.47 µM and 0.698 µM; in the assay on CAKI-1 renal, 3.89 µM and > 3 µM; in the assay on COLO 205 colon, 0.0687 µM and 0.0561 µM; in the assay on IGROV1 ovarian, 0.204 µM; with MDA-MB-435 it was 0.189 µM and 0.232 µM; in the assay with RPMI-8226 leukemia it was 0.118 µM and 0.243 µM. For the same compound, the GI50 was 0.124 µM and 0.197 µM with SK-MEL-2 melanoma; 0.0346 µM and 0.0265 µM with SR leukemia; 0.251 µM and 0.225 µM in the assay on T-47D breast; 5.6 µM and 2.07 µM in the assay on UO-31 renal. Further, the TGI was > 47.7 µM with 786-0 renal; 32.7 µM and > 10 µM in the assay on CAKI-1 renal; 0.207 µM and 0.24 µM with COLO 205 colon; 4.28 µM and > 10 µM with IGROV1 ovarian; 0.905 µM and 1.07 µM with MDA-MB-435; 0.45 µM and 0.768 µM in the assay with RPMI-8226 leukemia. For the same compound, the TGI in the assay on SK-MEL-2 melanoma is 0.284 µM and 0.518 µM; in the assay on SR leukemia, 1.6 µM; in the assay with T-47D breast it was 0.847 µM and > 4.35 µM; in the assay with UO-31 renal, 21.7 µM and > 8.99 µM.

Regarding `Cc1nc(Nc2ccc(Cl)c(Cl)c2)sc1C(/C=C/c1ccc2c(c1)OCO2)=N/Nc1ccc([N+](=O)[O-])cc1[N+](=O)[O-]`, the TGI in the assay on 786-0 renal is > 100 µM; in the assay with CAKI-1 renal, > 46.4 µM; with COLO 205 colon it was > 100 µM; with IGROV1 ovarian, > 100 µM; in the assay on MDA-MB-435 it was > 100 µM; in the assay on RPMI-8226 leukemia it was > 100 µM. Further, the TGI in the assay with SK-MEL-2 melanoma, in the assay with SR leukemia, in the assay on T-47D breast and with UO-31 renal was > 100 µM in each case.

The record behind these values is PubChem BioAssay (NCI).
